From US4950792A, “Substituted p,p'-methylene-bis-anilines” (Lonza Ltd., priority 1985, dated 1990)

Tests used:
[1] = thermal stability: exotherm on heating; assay type: physicochemical; details: for exotherm of the product / time after which an exotherm could be determined: 350° C.
Method: Further, it was possible to establish that the compounds according to the invention are extremely temperature-stable. Thus, most of such compounds could be heated to 350° C. (comparison of MOCA around 200° C.) without the occurrence of an exotherm. The maximum possible working temperature with the new compounds consequently is substantially higher than with the usual chain-lengthening agents (comparison with MOCA, 140° C.). If this temperature is not used, at least the safe, decomposition-free working temperature range is substantially greater than the prior art compounds.

[2] = prior art; cited from earlier work

## Cc1c(N)c(C(C)C)cc(Cc2cc(C(C)C)c(N)c(C)c2Cl)c1Cl [Amine VIII, 4,4'-Methylene-bis(3-chloro-2-methyl-6-isopropylaniline)]
[1]; over 8 hours
  exotherm of the product: No exotherm

## CCc1cc(Cc2cc(CC)c(N)c(CC)c2Cl)c(Cl)c(CC)c1N [Amine V, 4,4'-Methylene-bis-(3-chloro-2,6-diethylaniline)]
[1]; over 8 hours
  exotherm of the product: No exotherm

## CCc1cc(Cc2cc(CC)c(N)c(C)c2Cl)c(Cl)c(C)c1N [Amine VI, 4,4'-Methylene-bis-(3-chloro-2-methyl-6-ethylaniline)]
[1]; over 8 hours
  exotherm of the product: No exotherm

## Cc1cc(Cc2cc(C)c(N)c(C(C)C)c2Cl)c(Cl)c(C(C)C)c1N [Amine VII, 4,4'-Methylene-bis-(5-chloro-2-methyl-6-isopropylaniline)]
[1]
  temperature up to which no exotherm could be determined: > 320 °C

## CC(C)c1cc(Cc2cc(C(C)C)c(N)c(C(C)C)c2Cl)c(Cl)c(C(C)C)c1N [Example 4, 4,4'-Methylene-bis(3-chloro-2,6-diisopropylaniline)]
[1]
  time after which an exotherm could be determined: 3 h

## CCC(C)c1c(N)c(C)cc(Cc2cc(C)c(N)c(C(C)CC)c2Cl)c1Cl (stereo not drawn) [Amine X, 4,4'-Methylene-bis(5-chloro-2-methyl-6-sec-butylaniline)]
[1]
  temperature up to which no exotherm could be determined: > 340 °C

## CCc1c(N)c(C)cc(Cc2cc(C)c(N)c(CC)c2Cl)c1Cl [Example 2, 4,4'-Methylene-bis-(5-chloro-2-methyl-6-ethylaniline)]
[1]; over 8 hours
  exotherm of the product: No exotherm

## CCc1c(N)c(Cl)cc(Cc2cc(Cl)c(N)c(CC)c2Cl)c1Cl [Amine IV, 4,4'-Methylene-bis(2,5-dichloro-6-ethylaniline)]
[1]; time not stated
  exotherm of the product: An exotherm

## CCC(C)c1cc(Cc2cc(C(C)CC)c(N)c(C(C)CC)c2Cl)c(Cl)c(C(C)CC)c1N (stereo not drawn) [Amine IX, 4,4'-Methylene-bis-(3-chloro-2,6-di-sec-butylaniline)]
[1]; over 8 hours
  exotherm of the product: No exotherm

## Nc1ccc(Cc2ccc(N)c(Cl)c2)cc1Cl [Amine I, 4,4'-methylene-bis(2-chloroaniline), reference compound]
[2]
  carcinogenicity: carcinogenicity
[1]; comparison with MOCA
  temperature to which compound could be heated without the occurrence of an exotherm: around 200 °C

## CCC(C)c1cc(Cc2cc(C(C)CC)c(N)c(C)c2Cl)c(Cl)c(C)c1N (stereo not drawn) [Example 9, 4,4'-Methylene-bis(3-chloro-2-methyl-6-sec-butylaniline)]
[1]
  time after which an exotherm could be determined: 2 h
